Source: patent publication US5734081A, “Arylthio compounds” (Warner-Lambert Company, priority 1995, dated 1998)
Where two headings read alike, the source gives them in different places.

Columns and labels:
[1] = H9 cell cytotoxicity (XTT assay, uninfected cells); assay type: cell-based; details: human, drug alone, read-out: IC50 (Inhibitory Concentration where drug alone inhibits cell growth)
Procedure: (§1) The H9 T-cell line is batch infected with HIV virus at an M0I of 0.01. After 2 hours absorption, the cells are washed, resuspended in RPMI-1640/10% fetal calf serum, and seeded at […] of a 96-well plate. A duplicate plate of uninfected H9 cells is prepared for the cytotoxicity assay. Drugs are serially diluted 1/3.16 in DMSO, transferred to media at an 8× concentration, and then added to the cultures in triplicate. The final DMSO concentration of 0.002 (0.2%).
(§2) Viral production is measured by RT assay and cytotoxicity is measured by XTT assay at 7 days post-infection. The RT assay is performed as a modification of Borroto-Esoda and Boone, J. Virol., 1991;65:1952-1959 and quantitated using a Molecular Dynamics Phosphoimager with Imagequant software. The XTT assay is performed as a modification of Roehm, et al., J. Immuno. Methods., 1991;142:257-265 and quantitated using a molecular Devices Thermomax plate reader with Softmax software.
(§3) Data is electronically transferred to a Microsoft Excell spreadsheet for analysis. The RT assay values equivalent to 50% and 90% inhibition of virus production are calculated from the untreated controls. The concentrations of inhibitor required to produce these values (IC50 and IC90) are interpolated from data points flanking these RT activities. The XTT assay values equivalent to 50% cytotoxicity are calculated from the untreated controls. The concentrations of inhibitor required to produce this value are interpolated from data points flanking these XTT values.

[2] = CEM cell growth inhibition (XTT, noninfected cells); assay type: cell-based; details: human, CEM Cell Assay, drug alone, read-out: IC50 (Inhibitory Concentration where drug alone inhibits cell growth)
Procedure: (§4) Yet another test system employed to determine antiviral activity is called the CEM cell assay.
(§5) T4 lymphocytes (CEM cell line) are exposed to HIV at a virus to cell ratio approximately 0.05, and plated along with noninfected control cells in 96-well microliter plates.
(§6) The candidate agent is dissolved in dimethyl sulfoxide (unless otherwise noted), then diluted 1:200 in cell culture medium. Further dilutions (half-log10) are prepared before adding to an equal volume of medium containing either infected or noninfected cells. Cultures are incubated at 37° in a 5% carbon dioxide atmosphere for 6 or 7 days. The tetrazolium salt, XTT, is added to all wells, and cultures are incubated to allow formazan color development by viable cells (J. National Cancer Institute, 1989;81:577-586). Individual wells are analyzed spectrophotometrically to quantitate formazan production, and in addition are viewed microscopically for detection of viable cells confirmation of protective activity.
(§7) Drug-tested virus-infected cells are compared with drug-treated noninfected cells and with other appropriate controls (untreated infected and untreated noninfected cells, drug-contain wells without cells, etc.) on the same plate. Data are reviewed in comparison with other tests done at the same time and a determination about activity is made.

Stah. aureus RBI = test: Antibacterial activity, microtitration; assay type: cell-based; details: Gram (+)
Procedure: (§8) The compounds are additionally useful as broad spectrum antibiotics. Minimum inhibitory concentrations were determined utilizing microtitration techniques described by Heifetz, et. al., Antimicrobial Agents and Chemotherapy, 1974, Vol. 6, 124. The data establish that the compounds have activity against a broad spectrum of bacteria, both Gram +and Gram -. Accordingly, the compounds can be utilized to treat and prevent bacterial diseases in animals and humans. They can also be used as industrial disinfectants, for example, to reduce bacterial growth in shower stalls and public areas.

E. coli B90 = test: Antibacterial activity, microtitration; assay type: cell-based; details: Gram (-)
Procedure: as §8

E. coli MC4100 = test: Antibacterial activity, microtitration; assay type: cell-based; details: Gram (-)
Procedure: as §8

Strep. pyogenes c-203 = test: Antibacterial activity, microtitration; assay type: cell-based; details: Gram (+)
Procedure: as §8

HIV-1 [3] = test: CEM cell assay, anti-HIV-1 activity; assay type: cell-based; details: Human immunodeficiency virus 1, CCRF-CEM, HIV-1, 6 or 7 days, read-out: EC50 (Effective Concentration which protects cells from viral cytopathic effects)
Source text: The test systems utilized to establish the antiviral activity of the arylthio compounds of this invention are well recognized in the art and are routinely employed for such purpose. For example, the assay utilized to evaluate the compounds activity against the HIV virus is that employed by the U.S. National Cancer Institute as described by Weislow O. S., et al., J. Natl. Cancer Inst., 1989;81:577-586, incorporated herein by reference.
The procedure is designed to detect agents acting at any stage of the virus reproductive cycle. The assay basically involves the killing of T4 lymphocytes by HIV. Small amounts of HIV are added to cells, and at least two complete cycles of virus reproduction are necessary to obtain the required cell killing. Agents which interact with virions, cells, or virus gene-products to interfere with viral activities will protect cells from cytolysis. The system is automated in several features to accommodate large numbers of candidate agents, and is generally designed to detect anti-HIV activity. However, compounds which degenerate or are rapidly metabolized in the culture conditions may not show activity in this screen.
as §4, §5, §6, §7

HIV-1 [4] = test: HIV H9 cell assay, anti-HIV-1 activity; assay type: cell-based; details: Human immunodeficiency virus 1, H9, 168 h, read-out: EC50 (Effective Concentration which protects cells from viral cytopathic effects)
Source text: Another test system utilized to evaluate the invention compounds is called HIV H9 assay. The HIV H9 cell assay measures the inhibitor concentration required to suppress HIV-1 virus replication. In this system, viral growth occurs through multiple rounds of the life-cycle. Any suppression of the replication kinetics results in a geometric decrease in virus production. As a result, this assay is a sensitive means of measuring the ability of a compound to inhibit HIV-1 viral replication.
as §1, §2, §3

HIV-1A17 [5] = test: Anti-HIV activity, HIV-1A17 in MT-2 cells; assay type: cell-based; details: Human immunodeficiency virus 1, MT2
Procedure: (§9) The compounds of the invention were also evaluated against various other HIV strains and cell lines utilizing the assay methodology described above. The compounds were additionally evaluated against clinical isolates of HIV strains.

HIV-1IIIb [6] = test: Anti-HIV activity, HIV-1IIIb in MT-2 cells; assay type: cell-based; details: Human immunodeficiency virus 1, MT2; MT-2, HIV-1IIIb
Procedure: as §9

HIV-1RF = test: Anti-HIV activity, HIV-1RF in CEM cells; assay type: cell-based; details: Human immunodeficiency virus 1, CCRF-CEM
Procedure: as §4, §5, §6, §7, §9

HIV-2ROD = test: Anti-HIV activity, HIV-2ROD in CEM cells; assay type: cell-based; details: Human immunodeficiency virus 2, CCRF-CEM
Procedure: as §4, §5, §6, §7, §9

HIV-1WEIO = test: Anti-HIV activity, clinical isolate HIV-1WEIO in PBL; assay type: cell-based
Procedure: as §9

HIV-16R = test: Anti-HIV activity, HIV-16R in MT-4 cells; assay type: cell-based, HIV-1
Procedure: as §9

HIV-1IIIb [7] = test: Anti-HIV activity, HIV-1IIIb in CEM cells; assay type: cell-based; details: Human immunodeficiency virus 1, CCRF-CEM
Procedure: as §4, §5, §6, §7, §9

SIV = test: Antiviral activity, SIV in CEM cells; assay type: cell-based; details: Simian immunodeficiency virus, CCRF-CEM
[8] = molecular target: T1, HIV-1 Nucleocapsid Protein (NCp7) (Human immunodeficiency virus type 1 group M subtype B, UniProt P12493); test: Zinc extrusion assay (TSQ fluorescence) from the zinc fingers of HIV-1 nucleocapsid protein (NCp7); assay type: biochemical; details: 10 μM compound, 2.8 μM NCp7, pH 7.4, 26° C., 90 minutes
T1 construct: The NCp7 protein containing 2 Zn-fingers and 2 Zn ions is incubated with drug
Source text: The compounds of the present invention cause the extrusion of zinc from the nucleocapsid protein (NCp7) of HIV-1. The NC protein is highly conserved among all retroviruses (South T., Blake P., et al., Biochemistry, 1990;29:7786) and is essential for viral infectivity (Aldovini A. and Young R., J. Virology, 1990;64:1920 and Gorelick R., Nigida S., et al., J. Virology, 1990;64:3207). The zinc is normally held in NC proteins by 1 or 2 zinc fingers. In the case of HIV-1, 2 zinc fingers are present (Summers M., South T., et al., Biochemistry, 1990;29:329) and are involved specifically with the PSI site on viral RNA which controls the packaging of viral RNA. Interference of this packaging causes the formation of non-infectious virions (Dannull J., Surovoy A., et al., EMBO, 1994;13:1525). It has previously been shown that compounds that cause zinc extrusion have potent anti-HIV activity in multiple cell lines and against all retroviruses (Rice W., Schaeffer C., et al., Nature, 1993;361:473).
A fluorescence-based assay has been developed to monitor the ejection of zinc from purified HIV-1 NCp7. The fluorophore, N-(6-methoxy-8-quinolyl)-p-toluenesulfonamide (TSQ), has an increased fluorescent signal upon bonding zinc ion in solution. The NCp7 protein containing 2 Zn-fingers and 2 Zn ions is incubated with drug causing the extrusion of Zn ions. The released Zn is then sequestered by the TSQ and the increased fluorescence monitored relative to control. […] Fluorescence (excitation 355 nm emission 400 nm) was monitored versus time. Controls were the NCp7 under assay conditions without drug, and apo NCp7 (no Zn) with drug. The % Zn extrusion was calculated based on the actual fluorescence measured divided by the fluorescence of all theoretical Zn extruded (5.6 μM)×100.
Table 1 below presents data for several invention compounds evaluated in the zinc extrusion assay described above.

HIV-1A17 [9] = test: Anti-HIV activity, HIV-1A17 in MT-4 cells; assay type: cell-based
Procedure: as §9

HIV-1N119 = test: Anti-HIV activity, HIV-1N119 in CEM cells; assay type: cell-based; details: Human immunodeficiency virus 1, CCRF-CEM
Procedure: as §4, §5, §6, §7, §9

[10] = Human immunodeficiency virus 1, MT4
[11] = Human immunodeficiency virus 1, MT4, read-out: EC50 (AZT)

NS(=O)(=O)c1ccc(NC(=O)c2ccccc2S)cc1 [Example 6, 2-Thio-N-(4-sulfamoylphenyl)benzamide]
CC50 at 168 h [1]: 28 µM
CC50 [2]: > 100 µM
Minimum inhibitory concentration (Stah. aureus RBI): 128
Minimum inhibitory concentration (E. coli B90): 32
Minimum inhibitory concentration (E. coli MC4100): 64
Minimum inhibitory concentration (Strep. pyogenes c-203): 64
EC50 (HIV-1 [3]): 5.2 µM
EC50 (HIV-1 [4]): 2.5 µM

O=c1[nH]cnc2c1ncn2[C@H]1CC[C@@H](CO)O1 [ddI, dideoxyinosine, reference compound]
EC50 (HIV-1A17 [5]): 4.6 µM
EC50 (HIV-1IIIb [6]): 6 µM

CC(=O)NS(=O)(=O)c1ccc(NC(=O)c2ccccc2SSc2ccccc2C(=O)Nc2ccc(S(=O)(=O)NC(C)=O)cc2)cc1 [Example 4, 2,2'-Dithiobis-N-[4-[(acetylamino)sulfonyl]phenyl]benzamide]
EC50 (HIV-1RF; CEM, HIV-1RF, read-out: EC50): 1.5 µM
EC50 (HIV-2ROD; CEM, HIV-2ROD, read-out: EC50): 3 µM
CC50 at 168 h [1]: 27 µM
EC50 (HIV-1WEIO; Human immunodeficiency virus 1): 5.2 µM
EC50 (HIV-16R; [10]): 1.9 µM
EC50 (HIV-1IIIb [7]; CEM, HIV-1IIIb, read-out: EC50): 5.2 µM
Minimum inhibitory concentration (Stah. aureus RBI): 256
Minimum inhibitory concentration (E. coli B90): 32
Minimum inhibitory concentration (E. coli MC4100): 128
Minimum inhibitory concentration (Strep. pyogenes c-203): 64
EC50 (SIV; read-out: EC50): 3.4 µM
% Zinc Extrusion Relative to Control [8]: 87%
EC50 (HIV-1A17 [9]; [10]): 8.9 µM
EC50 (HIV-1N119): 4.6 µM
EC50 (HIV-1 [4]): 4.8 µM

Cc1cn([C@H]2C[C@H](N=[N+]=[N-])[C@@H](CO)O2)c(=O)[nH]c1=O [AZT, azidothymidine, reference compound]
EC50 (HIV-1RF; read-out: EC50 (AZT)): 0.0006 µM
EC50 (HIV-2ROD; read-out: EC50 (AZT)): 0.00141 µM
EC50 (HIV-1WEIO; Human immunodeficiency virus 1, read-out: EC50 (AZT)): 0.003 µM
EC50 (HIV-16R; [11]): > 1 µM
EC50 (HIV-1IIIb [7]; read-out: EC50 (AZT)): 0.0045 µM
EC50 (SIV; read-out: EC50 (AZT)): 0.245 µM
EC50 (HIV-1A17 [9]; [11]): 0.114 µM
EC50 (HIV-1N119; read-out: EC50 (AZT)): 0.0444 µM
